Where “and” joins values, the source holds several entries; their conditions need not be identical. Identical values can stand only once. Entries after “also recorded” stand apart in the source; their conditions may differ. Blank lines part the entries; values can stand above or below the molecule they belong to.
How the values were obtained:
TamR3 cells = assay: MTS assay, TamR3; format: cell-based, human
Procedure: (§1) Cells were seeded in 96-well plates at a density of 5 × 10^3 cells/well. MCF7, […]-MB-453 and HeLa cells were seeded in their respective media. […] After 96 hours, 30 μl of MTS reagent (CellTiter 96 AQueous One Solution Cell Proliferation Assay reagent; Promega) were added and incubated for 90 minutes at 37°C in 5% CO2. The production of formazan was measured at 490 nm.

ERα LBD = target: T1, ERα LBD (Homo sapiens, UniProt P03372); assay: Bio-layer interferometry assay; format: binding; conditions: 3 to 100 μM
T1 construct: ERα LBD (peptides 302 to 552); made in house; host or cells: Escherichia coli BL21
T1 sequence (P03372 302-552): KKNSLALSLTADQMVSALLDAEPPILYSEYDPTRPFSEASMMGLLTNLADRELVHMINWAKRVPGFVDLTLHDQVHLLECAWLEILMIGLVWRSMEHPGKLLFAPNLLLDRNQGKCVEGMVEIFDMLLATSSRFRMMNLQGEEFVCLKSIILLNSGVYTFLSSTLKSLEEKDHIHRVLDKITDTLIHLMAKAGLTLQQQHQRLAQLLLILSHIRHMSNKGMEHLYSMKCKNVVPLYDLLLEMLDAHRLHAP
Excerpt: The direct reversible interaction between small molecules and the ER-α was quantified by BLI using an Octet RED apparatus (Pall ForteBio, Menlo Park, CA, USA). The LDB of the biotinylated oestrogen receptor-alpha (bERα) was produced in situ with AviTag technology (Avidity, Aurora, CO, USA). […] A six-residue histidine tag was incorporated at the C-terminus of the ERα LBD for purification of the protein. […] The bacteria were then lysed by sonication, and the resulting lysate was purified by immobilised metal ion affinity chromatography with nickel agarose beads and cation exchange chromatography (HiTrap SP; GE Healthcare Life Sciences, Pittsburgh, PA, USA). […] The compounds were dissolved in the assay buffer in a twofold dilution series ranging from 3.1 to 100 μM.
The ERα LBD was biotinylated on the AviTag by a biotin ligase expressed by the bacterial cells cotransformed with the biotin ligase plasmid pBirACm. The bERα LBD was purified by nickel-affinity chromatography and immobilised on streptavidin-coated biosensor tips. The interaction between small molecule and protein was measured in real time as a shift in the interference pattern of the incident light. A response profile was generated on the Octet RED system.

MCF7 cells = assay: MTS assay, MCF7; format: cell-based, human; conditions: MCF7, 96 h, 1 nM E2; read-out: IC50, growth inhibition
Procedure: as §1

[1] = target: T2, oestrogen receptor-alpha (ERα) (Homo sapiens, UniProt P03372); assay: Luciferase oestrogen receptor-alpha transcriptional assay in T47D-KBluc cells; format: cell-based; set-up: endogenous in cells; host or cells: T47D-KBluc
T2 sequence (P03372 1-595): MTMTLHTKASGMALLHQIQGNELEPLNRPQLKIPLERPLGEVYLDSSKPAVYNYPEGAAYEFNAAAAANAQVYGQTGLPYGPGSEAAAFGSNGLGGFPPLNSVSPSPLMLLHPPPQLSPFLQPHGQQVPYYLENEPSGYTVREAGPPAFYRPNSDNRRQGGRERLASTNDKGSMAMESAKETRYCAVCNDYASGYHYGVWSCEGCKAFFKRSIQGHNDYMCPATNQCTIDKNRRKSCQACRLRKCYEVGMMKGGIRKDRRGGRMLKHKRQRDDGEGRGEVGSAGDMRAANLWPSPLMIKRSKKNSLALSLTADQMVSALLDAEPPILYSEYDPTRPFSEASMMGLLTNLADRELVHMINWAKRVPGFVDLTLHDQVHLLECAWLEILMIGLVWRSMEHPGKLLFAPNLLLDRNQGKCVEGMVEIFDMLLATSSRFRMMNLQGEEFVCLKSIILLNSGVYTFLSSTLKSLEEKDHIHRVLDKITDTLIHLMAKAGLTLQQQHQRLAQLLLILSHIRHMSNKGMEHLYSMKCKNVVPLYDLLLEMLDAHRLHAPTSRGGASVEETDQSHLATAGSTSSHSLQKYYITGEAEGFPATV
Procedure: ERα-positive T47D-KBluc human BCa cells were grown in phenol red–free RPMI 1640 supplemented with 10% CSS for 5 days. The cells were seeded on a 96-well plate (2 × 10^4 cells/well). […] The test compounds were screened at two concentrations: 12 μM and 30 μM. […] The medium contained 0.1% (v/v) ethanol and 0.1% (v/v) DMSO. Twenty-four hours after treatment, the medium was aspirated and the cells were lysed by adding 50 μl of 1× passive lysis buffer (Promega, Madison, WI, USA). The plates were placed on a shaker at room temperature for 15 minutes and then subjected to two freeze–thaw cycles to help lyse the cells. Next, 20 μl of the lysate from each treatment was transferred onto a white, 96-well, flat-bottomed plate (Corning Life Sciences, Corning, NY, USA), and the luminescent signal was measured after adding 50 μl of the luciferase assay reagent (Promega) on a TECAN M200 PRO microplate reader (Tecan, Männedorf, Switzerland). Differences in growth were normalised against total protein concentration, which was measured by bicinchoninic acid (BCA) assay.

TamR6 cells = assay: MTS assay, TamR6; format: cell-based, human
Procedure: as §1

[2] = target: T3, ERα AF2 site (GST-tagged ER-LBD) (Homo sapiens, UniProt P03372); assay: TR-FRET ERα coactivator (PGC-1α peptide) displacement assay; format: biochemical
T3 construct: glutathione S-transferase (GST)-tagged ER-LBD (7.25 nM); purchased Life Technologies PV4544
T3 sequence (P03372 311-547 limits assumed): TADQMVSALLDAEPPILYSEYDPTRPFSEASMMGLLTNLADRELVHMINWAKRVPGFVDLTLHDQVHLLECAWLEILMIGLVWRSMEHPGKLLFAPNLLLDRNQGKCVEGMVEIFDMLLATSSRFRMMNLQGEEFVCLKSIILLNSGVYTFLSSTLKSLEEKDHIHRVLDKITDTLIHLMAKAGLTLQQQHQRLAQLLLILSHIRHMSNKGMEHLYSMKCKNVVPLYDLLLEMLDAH

[3] = target: T2, oestrogen receptor-alpha (ERα); assay: Transiently transfected E2-responsive luciferase reporter in TamR3 cells; format: cell-based; set-up: endogenous in cells; conditions: TamR3, 1 nM E2; read-out: IC50, transcriptional inhibition of transiently transfected E2-responsive luciferase reporter
Procedure: (§2) For transient transfection, we used pGL2.TATA.Inr.luc plasmid, which contains three copies of vitellogenin oestrogen response element (ERE) upstream of the TATA promoter (3X ERE TATA luc; Addgene plasmid 11354). This is the same plasmid used to construct pGL2.TATA.Inr.luc.neo, used to create the stable cell line T47D-KBluc.
(§3) TamR3 and TamR6 cells were grown in phenol red–free RPMI 1640 supplemented with 10% CSS and 1 μM tamoxifen. The cells were seeded on a 96-well plate (2 × 10^4 cells/well). After 24 hours, the cells were cotransfected with 50 ng each of the ERα-responsive luciferase plasmid and a constitutive Renilla reporter (to normalise for variations in transfection efficiency) using TransIT-2020 reagent (Mirus Bio, Madison, WI, USA). […] The compounds were added in a twofold dilution ranging from 0.1 to 50 μM. […] The medium contained 0.1% (v/v) ethanol and 0.1% (v/v) DMSO. Twenty-four hours after treatment, the medium was aspirated and the cells were lysed by adding 50 μl of 1× passive lysis buffer (Promega). Luciferase activities were assayed using the Dual-Luciferase Reporter Assay System (Promega).

[4] = target: T2, oestrogen receptor-alpha (ERα); assay: Transiently transfected E2-responsive luciferase reporter in TamR6 cells; format: cell-based; set-up: endogenous in cells; conditions: TamR6, 1 nM E2; read-out: IC50, transcriptional inhibition of transiently transfected E2-responsive luciferase reporter
Procedure: as §2, §3

[5] = tested on: pS2, cathepsin D and CDC2 protein; assay: Western blotting of oestrogen-responsive gene products in MCF7 cells; format: cell-based, human; conditions: MCF7, 24 h, 1 nM E2; 12 and 6 μM
Procedure: MCF7 cells were serum-starved in phenol red–free RPMI 1640 containing 10% CSS for 5 days. […] After 24 hours, the medium was aspirated, and the cells were washed with ice-cold phosphate-buffered saline. Cells were lysed in 1× radioimmunoprecipitation assay buffer containing one tablet of cOmplete protease inhibitor cocktail (Roche Life Science, Indianapolis, IN, USA). Cell debris was pelleted by centrifugation at 15,000 g for 10 minutes at 4°C. The supernatants were collected and quantified using the BCA assay. In each case, 25 μg of protein was loaded onto 15% (v/v) SDS-PAGE gels, separated and transferred to polyvinylidene fluoride membrane. Membranes were incubated with pS2, cathepsin D and CDC2 antibodies or control α-actin antibody. Bound antibodies were detected using horseradish peroxidase–conjugated secondary antibodies. Chemiluminescence was detected with an Amersham ECL detection kit (GE Healthcare Life Sciences), and bands were visualised using the G:BOX imager (Syngene, Frederick, MD, USA).

[6] = tested on: pS2, cathepsin D and CDC2 mRNA; assay: Quantitative RT-PCR of oestrogen-responsive genes in MCF7 cells; format: cell-based, human; conditions: MCF7, 24 h
Procedure: mRNA levels were analysed by quantitative RT-PCR (qRT-PCR). For this purpose, serum-starved MCF7 cells were seeded onto six-well plates at a density of 6 × 10^5 cells/well. […] RNA was isolated after 24 hours with TRIzol reagent (Life Technologies) and purified with the RNeasy Mini Kit (QIAGEN, Valencia, CA, USA). The purified mRNA was quantified using a NanoDrop spectrophotometer (NanoDrop, Wilmington, DE, USA). RNA (0.5 μg) was reverse-transcribed using the iScript synthesis kit (Bio-Rad Laboratories, Hercules, CA, USA). cDNA product (100 ng) was added to the primer mix. The final concentration of the primers was 5 pM. The sequences of the primers used in the qRT-PCR experiments were as follows: pS2, forward [NT] and reverse [NT]; cathepsin D, forward [NT] and reverse [NT]; CDC2, forward [NT] and reverse [NT]; glyceraldehyde 3-phosphate dehydrogenase (GAPDH), forward [NT] and reverse [NT]. The fold change in expression of the gene was calculated using the 2^-ΔΔCt method with GAPDH as the internal control.

[7] = target: T4, biotinylated oestrogen receptor-alpha ligand-binding domain (bERα LBD) (human, UniProt P03372 302-552, biotin on the AviTag); assay: BLI; Octet RED; bERα LBD bound to Super Streptavidin Sensors; 20 mM Tris pH 7.5, 500 mM NaCl, 0.2 mM TCEP, 0.02 mM E2, 5% glycerol, 5% DMSO; PGC-1α peptide in solution as positive control; conditions: both partners purified
T4 construct: Assay buffer held 0.02 mM E2
T4 sequence (looked up): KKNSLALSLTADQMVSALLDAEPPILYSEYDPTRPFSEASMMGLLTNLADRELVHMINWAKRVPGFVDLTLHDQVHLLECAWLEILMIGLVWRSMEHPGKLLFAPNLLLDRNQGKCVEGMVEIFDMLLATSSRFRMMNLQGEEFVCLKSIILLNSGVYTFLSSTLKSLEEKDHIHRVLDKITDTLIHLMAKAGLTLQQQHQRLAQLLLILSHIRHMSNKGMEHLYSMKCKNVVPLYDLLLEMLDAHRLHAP

Molecule: CCOc1cc(Br)cc(/C=N/NC(=O)c2ccc3c(c2)OCCO3)c1O [VPC-16230]
- IC50 (TamR3 cells; TamR3, 96 h, 1 nM E2, read-out: IC50, growth inhibition): 3.4 µM
- Binding to ERα LBD by BLI (ERα LBD): direct and reversible interaction
- IC50 (MCF7 cells): 7.8 µM
- IC50 ([1]; T47D-KBluc cells, 1 nM E2, 24 h, read-out: IC50, inhibition of ERα transcriptional activity (luciferase reporter)): 5.81 µM and 5.8 µM
- Shift of the IC50 curve in the presence of higher concentrations of E2 ([1]; T47D-KBluc, E2 1, 10, 50, 100 nM): did not show any significant shift
- IC50 ([1]; read-out: IC50, luciferase assay at varied E2, T47D-KBluc, E2 1 nM): 6.1 µM
- IC50 ([1]; read-out: IC50, luciferase assay at varied E2, T47D-KBluc, E2 100 nM): 6.5 µM
- IC50 (TamR6 cells; TamR6, 96 h, 1 nM E2, read-out: IC50, growth inhibition): 6.3 µM
- IC50 ([2]; TR-FRET, read-out: IC50, displacement of PGC-1α peptide from the AF2 site): 2.98 µM
- Shift of dose-response curve with increasing fluorescein-PGC-1α ([2]; fluorescein-PGC-1α 250, 500, 1000 nM, compounds 0.05 to 400 μM): rightward shift
- IC50 [3]: 4.7 µM
- IC50 [4]: 4.7 µM
- Protein levels of pS2, cathepsin D and CDC2 [5]: decreased
- mRNA levels of pS2, cathepsin D and CDC2 ([6]; in the absence of E2, 12, 6 and 3 μM): did not significantly inhibit; also recorded: did not significantly decrease
- mRNA levels of pS2, cathepsin D and CDC2 ([6]; in the presence of 1 nM E2, 12 and 6 μM): considerably reduced; also recorded: significantly decreased

Molecule: CC/C(=C(\c1ccccc1)c1ccc(OCCN(C)C)cc1)c1ccccc1 [tamoxifen, reference compound]
- Growth in the presence of 1 μM tamoxifen (TamR3 cells; TamR3, 1 μM in the medium): not affected
- Growth in the presence of 1 μM tamoxifen (TamR6 cells; TamR6, 1 μM in the medium): not affected

Molecule: cold PGC-1α peptide: Cold PGC-1α coactivator peptide (EAEEPSLLKKLLLAPANTQ), known AF2-interacting control [reference compound]
- Binding to ERα LBD by BLI (ERα LBD): direct and reversible interaction
- FRET signal with increasing concentration of cold peptide ([2]; 1.8 to 50 μM): dose-dependent decrease

- binding result [7]: binds
B1: Cold peroxisome proliferator-activated receptor gamma, coactivator 1-alpha (PGC-1α) peptide (peptide)
peptide: EAEEPSLLKKLLLAPANTQ
notes: also called cold PGC-1α peptide; cold PGC-1α; source: synthetic peptide (Elim Biopharmaceuticals)

Reference: PMC4360945, “In silico discovery and validation of potent small-molecule inhibitors targeting the activation function 2 site of human oestrogen receptor α” (Breast Cancer Research : BCR, 2015)
